Results as given in patent US20240287093A1, “HIGH ACTIVITY STING PROTEIN AGONIST” (ADLAI NORTYE BIOPHARMA CO., LTD., priority 2018, published 2024).

Legend:
Assay type in all cases: cell-based
STING = biological target: T1, STING (Homo sapiens, UniProt Q86WV6, G230A/H232R/R293Q/R71H); assay: IFNβ release from THP1 by STING activation (hIFNβ ELISA); conditions: THP1 cells, 24 h, IFN-β in supernatant; inactive = IFNβ not detected at the maximum concentration of compounds
T1 construct: THP1 was purchased from National Collection of Authenticated Cell Cultures (Cat #TCHu 57); host or cells: THP1
Protocol: Example III: Compound Stimulate THP1 to Release IFNβ by STING Activation
In this assay, activation of STING by compounds was evaluated by detecting their ability to stimulate the secretion of IFN-β (interferon-beta) from THP1. THP1 was purchased from National Collection of Authenticated Cell Cultures (Cat #TCHu 57). The top dose of compounds was setted according to their solubility. First, Compounds were 3 times diluted with medium, 8-dose points in total. The final DMSO concentration was 0.2%. THP1 during the logarithmic phase was resuspended to 2×10^6 cells/ml in assay medium. The THP1-cell suspension was dispensed into a 96-well U bottom plate containing 50 ul of compound diluted in medium. After 24 h incubation at 37° C., 5% CO2, the supernatant was collected. The concentration of IFN-β in the supernatant was measured using a human IFNβ ELISA KIT (R&D, DY814-05). The data was fitted with GraphPad Prism or XLfit to calculate EC50 values.

STING variants (WT) = biological target: T2, STING variants (WT) (Homo sapiens, UniProt Q86WV6); assay: SEAP reporter assay in HEK-Blue ISG KO-STING cells transfected with STING WT variant (Method 1); conditions: 24 h
T2 construct: host or cells: HEK-Blue ISG KO-STING cells (Invivogen, hkb-kostg)
Description: (§1) Example I: STING Variants (WT & HAQ) Activation by Compounds in HEK-Blue™ ISG KO-STING Cells (Method 1)
(§2) Activation of STING can be determined using a SEAP reporter assay in HEK-Blue™ ISG KO-STING cells (Invivogen, cat #hkb-kostg) transfected with plasmids expressing STING variants (WT & HAQ) (referred to WO2017/175147A1). STING variants (WT & HAQ) vector were constructed based on STING-232H vector (Origene, RC208418). GFP vector (VT2069) was bought from Youbio. The detailed protocol as follows: HEK-Blue™ ISG KO-STING cells were harvest and seeding into 96 well plate, the final cell number was 0.8×10^5 cells/well. Transfections were prepared using Lipofectamine 2000 (Invitrogen, Cat #11668-027) following the manufacturer's instructions (Lipo2000:DNA=1:10), 20 ul of transfection suspension containing 1 ng STING vector was added to cell culture plate and incubated at 37° C., 5% CO2 for 24 h. After 24 hours incubation, compounds were added at proper concentration, and the final DMSO concentration was 0.5%. After 24 h incubation, the supernatant was collected to detect SEAP signal using Great EscAPe SEAP chemiluminescence KIT (Clontech, cat #631738) and cells were collected to detect cell viability using CellTiter-Glo Luminescent Cell Viability Assay (Promega, cat #G7573) following the manufacturer's instructions. The data were described by the ratio of the stimulating signal of compounds to 0.5% DMSO.

STING variants (HAQ) = biological target: T3, STING variants (HAQ) (Homo sapiens, UniProt Q86WV6, G230A/R293Q/R71H); assay: SEAP reporter assay in HEK-Blue ISG KO-STING cells transfected with STING HAQ variant (Method 1); conditions: 24 h
T3 construct: host or cells: HEK-Blue ISG KO-STING cells (Invivogen, hkb-kostg)
Description: as §1, §2

[1] = compound concentration 115.2 μM
[2] = compound concentration 206.6 μM
[3] = compound concentration 75.95 μM
[4] = compound concentration 153.2 μM
[5] = compound concentration 125.3 μM
[6] = compound concentration 127.7 μM

T1 sequence (Q86WV6 whole entry R71H/G230A/H232R/R293Q): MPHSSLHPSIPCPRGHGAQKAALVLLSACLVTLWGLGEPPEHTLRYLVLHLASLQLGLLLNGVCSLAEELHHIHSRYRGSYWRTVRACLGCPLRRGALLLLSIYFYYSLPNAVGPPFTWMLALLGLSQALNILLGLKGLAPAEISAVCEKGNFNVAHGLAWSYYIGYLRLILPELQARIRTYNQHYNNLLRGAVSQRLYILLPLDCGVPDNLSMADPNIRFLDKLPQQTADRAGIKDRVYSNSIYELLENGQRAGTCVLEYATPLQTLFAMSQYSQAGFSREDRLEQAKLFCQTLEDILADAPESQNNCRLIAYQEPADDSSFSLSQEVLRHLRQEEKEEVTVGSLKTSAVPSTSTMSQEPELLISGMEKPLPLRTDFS
T3 sequence (Q86WV6 whole entry R71H/G230A/R293Q): as the sequence (Q86WV6 whole entry R71H/G230A/H232R/R293Q) above, with R232H counted along it

| SMILES | hIFNβ ELISA (EC50, μM) (STING) | Fold change related to DMSO control, WT (STING variants (WT); compound concentration 25 μM) | Fold change related to DMSO control, HAQ (STING variants (HAQ); compound concentration 25 μM) | other results |
| --- | --- | --- | --- | --- |
| CCn1nc(C)cc1C(=O)Nc1nc2cc(C(N)=O)cc3c2n1[C@H](CCCNC(=O)OCc1ccccc1)CO3 [Example 2, Benzyl (R)-(3-(7-carbamoyl-2-(1-ethyl-3-methyl-1H-pyrazole-5-carboxamido)-3,4-dihydro-5-oxa-1,2a-diazaacenaphthylen-3-yl)propyl)carbamate] | inactive |  |  | Fold change related to DMSO control, WT (STING variants (WT); compound concentration 77.9 μM): 2.25 fold; Fold change related to DMSO control, HAQ (STING variants (HAQ); compound concentration 77.9 μM): 6.46 fold |
| CCn1nc(C)cc1C(=O)Nc1nc2cc(C(N)=O)cc3c2n1[C@@H](CCNC(=O)COc1ccccc1)CO3 [Example 7, (S)-2-(1-Ethyl-3-methyl-1H-pyrazole-5-carboxamido)-3-(2-(2-phenoxyacetamido)ethyl)-3,4-dihydro-5-oxa-1,2a-diazaacenaphthylene-7-carboxamide] | inactive |  |  | Fold change related to DMSO control, WT (STING variants (WT); [1]): 2.70 fold; Fold change related to DMSO control, HAQ (STING variants (HAQ); [1]): 13.64 fold |
| CCn1nc(C)cc1C(=O)Nc1nc2cc(C(N)=O)cc3c2n1[C@@H](CCNC(=O)OCc1cccnc1)CO3 [Example 8, Pyridin-3-ylmethyl (S)-(2-(7-carbamoyl-2-(1-ethyl-3-methyl-1H-pyrazole-5-carboxamido)-3,4-dihydro-5-oxa-1,2a-diazaacenaphthylen-3-yl)ethyl)carbamate] | inactive |  |  | Fold change related to DMSO control, WT (STING variants (WT); compound concentration 73.3 μM): 3.47 fold; Fold change related to DMSO control, HAQ (STING variants (HAQ); compound concentration 73.3 μM): 13.17 fold |
| CCn1nc(C)cc1C(=O)Nc1nc2cc(C(N)=O)cc3c2n1[C@@H](C)CO3 [Example 12] |  |  |  | EC50 (STING): > 8.9 µM; Fold change related to DMSO control, WT (STING variants (WT); compound concentration 52.6 μM): 3.31 fold; Fold change related to DMSO control, HAQ (STING variants (HAQ); compound concentration 52.6 μM): 27.37 fold |
| CCn1nc(C)cc1C(=O)Nc1nc2cc(C(N)=O)cc3c2n1[C@@H](CCNC(=O)/C=C/c1ccccc1)CO3 [Example 15, (S)-3-(2-Cinnamamidoethyl)-2-(1-ethyl-3-methyl-1H-pyrazole-5-carboxamido)-3,4-dihydro-5-oxa-1,2a-diazaacenaphthylene-7-carboxamide] | inactive |  |  | Fold change related to DMSO control, WT (STING variants (WT); [3]): 3.68 fold; Fold change related to DMSO control, HAQ (STING variants (HAQ); [3]): 20.00 fold |
| CCn1nc(C)cc1C(=O)Nc1nc2cc(C(N)=O)cc3c2n1C[C@@H](C)O3 [Example 16, (R)-2-(1-Ethyl-3-methyl-1H-pyrazole-5-carboxamido)-4-methyl-3,4-dihydro-5-oxa-1,2a-diazaacenaphthylene-7-carboxamide] | inactive |  |  | Fold change related to DMSO control, WT (STING variants (WT); compound concentration 42.8 μM): 3.00 fold; Fold change related to DMSO control, HAQ (STING variants (HAQ); compound concentration 42.8 μM): 15.06 fold |
| CCn1nc(C)cc1C(=O)Nc1nc2cc(C(N)=O)cc3c2n1[C@@H](CCCCNC(=O)OCc1ccccn1)CO3 [Example 19, Pyridin-2-ylmethyl (S)-(4-(7-carbamoyl-2-(1-ethyl-3-methyl-1H-pyrazole-5-carboxamido)-3,4-dihydro-5-oxa-1,2a-diazaacenaphthylen-3-yl)butyl)carbamate] | inactive |  |  | Fold change related to DMSO control, WT (STING variants (WT); [5]): 1.65 fold; Fold change related to DMSO control, HAQ (STING variants (HAQ); [5]): 20.80 fold |
| CCn1nc(C)cc1C(=O)Nc1nc2cc(C(N)=O)cc3c2n1[C@@H](CCCCNC(=O)OCc1ccncc1)CO3 [Example 20, Pyridin-4-ylmethyl (S)-(4-(7-carbamoyl-2-(1-ethyl-3-methyl-1H-pyrazole-5-carboxamido)-3,4-dihydro-5-oxa-1,2a-diazaacenaphthylen-3-yl)butyl)carbamate] | inactive |  |  | Fold change related to DMSO control, WT (STING variants (WT); [6]): 1.43 fold; Fold change related to DMSO control, HAQ (STING variants (HAQ); [6]): 16.22 fold |
| CCC[C@H]1COc2cc(C(N)=O)cc3nc(NC(=O)c4cc(C)nn4CC)n1c23 [Example 23, (S)-2-(1-Ethyl-3-methyl-1H-pyrazole-5-carboxamido)-3-propyl-3,4-dihydro-5-oxa-1,2a-diazacenaphthylene-7-carboxamide] | inactive | 2.62 fold | 81.27 fold |  |

Now from value to compound, other results behind:

| hIFNβ ELISA (EC50, μM) (STING) | Fold change related to DMSO control, WT (STING variants (WT); compound concentration 25 μM) | Fold change related to DMSO control, HAQ (STING variants (HAQ); compound concentration 25 μM) | SMILES | other results |
| --- | --- | --- | --- | --- |
| inactive |  |  | CCn1nc(C)cc1C(=O)Nc1nc2cc(C(N)=O)cc3c2n1[C@@H](CCNC(=O)OCc1ccccn1)CO3 [Example 9, Pyridin-2-ylmethyl (S)-(2-(7-carbamoyl-2-(1-ethyl-3-methyl-1H-pyrazole-5-carboxamido)-3,4-dihydro-5-oxa-1,2a-diazaacenaphthylen-3-yl)ethyl)carbamate] | Fold change related to DMSO control, WT (STING variants (WT); [2]): 2.86 fold; Fold change related to DMSO control, HAQ (STING variants (HAQ); [2]): 21.28 fold |
| inactive |  |  | CCn1nc(C)cc1C(=O)Nc1nc2cc(C(N)=O)cc3c2n1CCO3 [Example 11, 2-(1-Ethyl-3-methyl-1H-pyrazole-5-carboxamido)-3,4-dihydro-5-oxa-1,2a-diazaacenaphthylene-7-carboxamide] | Fold change related to DMSO control, WT (STING variants (WT); compound concentration 27.9 μM): 2.26 fold; Fold change related to DMSO control, HAQ (STING variants (HAQ); compound concentration 27.9 μM): 4.20 fold |
| inactive |  |  | CCn1nc(C)cc1C(=O)Nc1nc2cc(C(N)=O)cc3c2n1[C@@H](CCCCNC(=O)OCc1cccnc1)CO3 [Example 18, Pyridin-3-ylmethyl (S)-(4-(7-carbamoyl-2-(1-ethyl-3-methyl-1H-pyrazole-5-carboxamido)-3,4-dihydro-5-oxa-1,2a-diazaacenaphthylen-3-yl)butyl)carbamate] | Fold change related to DMSO control, WT (STING variants (WT); [4]): 1.58 fold; Fold change related to DMSO control, HAQ (STING variants (HAQ); [4]): 17.64 fold |
| inactive | 3.02 fold | 95.64 fold | CCn1nc(C)cc1C(=O)Nc1nc2cc(C(N)=O)cc3c2n1[C@@H](C)CCO3 [Example 22, (S)-1-(1-Ethyl-3-methyl-1H-pyrazole-5-carboxamido)-9-methyl-8,9-dihydro-7H-6-oxa-2,9a-diazabenzo[cd]azulene-4-carboxamide] |  |
| inactive | 2.33 fold | 65.85 fold | CCn1nc(C)cc1C(=O)Nc1nc2cc(C(N)=O)cc3c2n1[C@@H](Cc1ccccc1)CO3 [Example 24, (S)-3-Benzyl-2-(1-ethyl-3-methyl-1H-pyrazole-5-carboxamido)-3,4-dihydro-5-oxa-1,2a-diazaacenaphthylene-7-carboxamide] |  |
|  | 2.24 fold | 56.18 fold | CCn1nc(C)cc1C(=O)Nc1nc2cc(C(N)=O)cc3c2n1[C@@H](C(C)C)CO3 [Example 25, (S)-2-(1-Ethyl-3-methyl-1H-pyrazole-5-carboxamido)-3-isopropyl-3,4-dihydro-5-oxa-1,2a-diazaacenaphthylene-7-carboxamide] | EC50 (STING): > 16.7 µM |
|  | 2.00 fold | 63.91 fold | CC[C@H]1COc2cc(C(N)=O)cc3nc(NC(=O)c4cc(C)nn4CC)n1c23 [Example 26, (S)-3-Ethyl-2-(1-ethyl-3-methyl-1H-pyrazole-5-carboxamido)-3,4-dihydro-5-oxa-1,2a-diazaacenaphthylene-7-carboxamide] | EC50 (STING): 11.4 µM |
|  | 2.37 fold | 56.43 fold | CCn1nc(C)cc1C(=O)Nc1nc2cc(C(N)=O)cc3c2n1CC(C)(C)CO3 [Example 27, 1-(1-Ethyl-3-methyl-1H-pyrazole-5-carboxamido)-8,8-dimethyl-8,9-dihydro-7H-6-oxa-2,9a-diazabenzo[cd]azulene-4-carboxamide] | EC50 (STING): 22.1 µM |
| inactive | 2.34 fold | 38.16 fold | CCn1nc(C)cc1C(=O)Nc1nc2cc(C(N)=O)cc3c2n1CC1(CC1)O3 [Example 28, 2-(1-Ethyl-3-methyl-1H-pyrazole-5-carboxamido)-3H-5-oxa-1,2a-diazaspiro[acenaphthylene-4,1′-cyclopropan]-1,2a^1(5a),6,8-tetraene-7-carboxamide] |  |
